Experimental data from patent publication EP2616456B1, “NUCLEAR EXPORT INHIBITORS” (Universitätsmedizin der Johannes Gutenberg-Universität Mainz, priority 2010, dated 2012).
Entries after “also recorded” stand apart in the source; their conditions may differ.

Experiments:
RevNES-biosensor [1] = test: RevNES-biosensor translocation (NES-mediated nuclear export) in living HeLa cells, fluorescence microscopy; type: cell-based; settings: for Cellular localization of green fluorescent RevNES-biosensor: HeLa; for Topt at 25µM: Table 4, fluorescence microscopy; for Mode of Inhibition: reversal of export inhibition after 24h, C5: 5-12h observation
Protocol: (§1) The activity of compounds C3, C5 and C24 to inhibit NES-mediated nuclear export in living cells was analyzed as described in Fetz et al., 2009 using living HeLa (cervix carcinoma), FaDu (head and neck cancer), MDA-MB231 (mammacarcinoma) and SW480 cells (colon cancer) which transiently expressed the RevNES-biosensor. The RevNES-biosensor is a fusion protein composed of (from N to C terminus) the SV40 large T-antigen nuclear localization signal (NLS), glutathion-S-transferase (GST), green fluorescent protein (GFP) and the nuclear export signal (NES) of the HIV-1 (human immunodeficiency virus) Rev protein (RevNES).
The cells of the control were treated with a corresponding amount of DMSO only. The cellular localization of RevNES-biosensor was monitored by fluorescence microscopy. […] Maximum of cellular accumulation was observed after 1h (C24), after 2h (C3) and after 5h (C5), respectively. […] Thus, the inhibitory activity of C3 and C24 (reversible) but not of C5 (irreversible) was reversed after 24h. Table 1: Cellular localization of green fluorescent RevNES-biosensor
Table 3: Cellular localization of green fluorescent RevNES-biosensor
(§2) IC50 value corresponds to compound concentration reducing HeLa cell viability by 50%. Topt is the time point post treatment when maximum nuclear export inhibition was observed by fluorescence microscopy. Table 4: Functional characteristics of nuclear export inhibitors

RevNES-biosensor [2] = test: RevNES-biosensor translocation in living FaDu, MDA-MB231 and SW480 cells, fluorescence microscopy; type: cell-based; settings: at Topt
Protocol: as §1
Maximum nuclear localization of fluorescence was observed after 2h (C3) and 5h (C5), respectively. Table 2: Cellular localization of green fluorescent RevNES-biosensor

Survivin = test: Nuclear export of Survivin-GFP fusion transiently expressed in HeLa cells; type: cell-based; settings: transient expression, 25µM
Protocol: The activity of compounds to inhibit the export of the oncologically relevant protein Survivin as well as of the HIV-1 Rev protein was analyzed.
Nuclear export of Survivin is crucial for its tumor promoting cytoprotective activity (Engels et al., 2007; Knauer et al., 2007a; Knauer et al., 2007b).

HeLa cells [3] = test: Cell viability (CellTiter-Glo) and cell death, HeLa; type: cell-based; settings: for cell death induced by treatment: HeLa (cervix carcinoma), 25µM; for viability compared to the control: HeLa, 100µM, 72h, CellTiter-Glo; for IC50: Homo sapiens, compound concentration reducing HeLa cell viability by 50%
Protocol: (§3) To test the anti-cancer activity of the compounds, several cancer cell lines, currently used as models for different epithelial cancers and leukemias, were treated with the indicated inhibitors. […] Every 24h, the cell culture medium was replaced by fresh compound-containing medium. 72h post treatment, cell were analyzed by adding 100µl CellTiter-Glo® assay reagent (Promega). Luminescence was measured with a LuminoskanAscent device (ThermoScientific). Cells treated with a corresponding amount of DMSO only were use as a control. The luminescence (equals cell viability) of said control was set to 100%.
as §2
It was assessed whether the export inhibitors also affect the viability of non-malignant human cells, precluding their potential (pre)clinical use. 10^3 freshly isolated non-malignant primary human fibroblasts (HTF-8) or HeLa cells/well were seeded and 24h later treated with the indicated compounds (final concentration: 100µM). Every 24h cell culture medium was replaced by freshly prepared compound-containing medium. 72h post treatment the cells were analyzed by adding 100µl CellTiter-Glo® assay reagent, and luminescence measured with a LuminoskanAscent (ThermoScientific). Cells treated with DMSO only were used as a control. The fluorescence measured (equals cell viability) with said control was set to 100%.

RKO = test: Cell viability (CellTiter-Glo) and cell death, RKO; type: cell-based; settings: for cell death induced by treatment: RKO (colon cancer), 25µM; for viability compared to the control: RKO, 100µM, 72h, CellTiter-Glo
Protocol: as §3

FaDu = test: Cell viability (CellTiter-Glo) and cell death, FaDu; type: cell-based; settings: for cell death induced by treatment: FaDu (head and neck cancer), 25µM; for viability compared to the control: FaDu, 100µM, 72h, CellTiter-Glo
Protocol: as §3

LS174T = test: Cell viability (CellTiter-Glo) and cell death, LS174T; type: cell-based; settings: for cell death induced by treatment: LS174T (colon adenocarcinoma), 25µM; for viability compared to the control: LS174T, 100µM, 72h, CellTiter-Glo
Protocol: as §3

K562 (Bcr-Abl^+) = test: Cell death, K562; type: cell-based; settings: K562 (Bcr-Abl^+) (chronic myeloid leukemia, CML), 25µM
SUP-B15 = test: Cell death, SUP-B15; type: cell-based; settings: SUP-B15 (B cell precursor ALL), 25µM
HeLa cells [4] = test: Apoptosis by immunoblot detection of cleaved Caspase 3 and PARP cleavage in HeLa lysates; type: cell-based; settings: 25µM, lysates 72h post treatment
Excerpt: Lysates of cells treated DMSO only were used as a control.

[5] = In vivo toxicity in nude mice; settings: male NMRI nu/nu mice, i.p. three times every second day, 200µl 1mM
Protocol: To investigate whether the nuclear export inhibitors cause toxic effects in vivo, six-week-old male NMRI nu/nu mice were injected three times intraperitoneally (i.p.) every second day with 200µl 1mM C3 or C5 (5 mice each), or with 200µl DMSO only (control, 2 mice).

[6] = tested on: HIV-1 (strain NL4-3; CXCR-4 tropic); test: HIV-1 replication inhibition assay in infected Tzm-bl cells (RT activity in supernatant); type: cell-based; settings: 25 or 50µM added 24h post infection, read 48h post infection
Protocol: The HIV-1 Rev protein transports unspliced and inclompletely spliced viral RNAs from the nucleus into the cytoplasm, crucial for viral replication and AIDS development (Pavlakis and Stauber, 1998; Stauber et al., 1995). […] 24h post infection, DMSO only (control) or compounds C3 or C5 (stock solution in DMSO) were added to a final concentration of 25 or 50µM. 24h later (= 48h post infection) the viral particles in the supernatant were quantified by measuring reverse transcriptase (RT) activity in the viral supernatant using the RT-Lenti Kit (Cavidi-Tech; Uppsala, Sweden) (see Fig. 6A).

| SMILES | Cellular localization of green fluorescent RevNES-biosensor (RevNES-biosensor [1]; 25µM, T = 0h) | Cellular localization of green fluorescent RevNES-biosensor (RevNES-biosensor [1]; 25µM, T = 24h) | Cellular localization of green fluorescent RevNES-biosensor (RevNES-biosensor [1]; 25µM, at Topt) | Cellular localization of green fluorescent RevNES-biosensor (RevNES-biosensor [1]; 75µM, T = 0h) | Cellular localization of green fluorescent RevNES-biosensor (RevNES-biosensor [1]; 150µM, T = 0h) | Topt at 25µM (RevNES-biosensor [1]; 25µM) | Mode of Inhibition (RevNES-biosensor [1]) | Cellular localization of green fluorescent RevNES-biosensor (RevNES-biosensor [2]; FaDu, 25µM) | Cellular localization of green fluorescent RevNES-biosensor (RevNES-biosensor [2]; MDA-MB231, 25µM) | Cellular localization of green fluorescent RevNES-biosensor (RevNES-biosensor [2]; SW480, 25µM) | Localization of Survivin-GFP fusion (nuclear export of Survivin) (Survivin) | cell death induced by treatment (HeLa cells [3]) | viability compared to the control (HeLa cells [3]) | IC50 (HeLa cells [3]) [µM] | cell death induced by treatment (RKO) | viability compared to the control (RKO) | cell death induced by treatment (FaDu) | viability compared to the control (FaDu) | cell death induced by treatment (LS174T) | viability compared to the control (LS174T) | further results |
| --- | --- | --- | --- | --- | --- | --- | --- | --- | --- | --- | --- | --- | --- | --- | --- | --- | --- | --- | --- | --- | --- |
| NC(=O)c1c(NC(NC(=O)c2ccccc2F)(C(F)(F)F)C(F)(F)F)sc2c1CCCC2 [Compound C3, 2-[[1,1,1,3,3,3-hexafluoro-2-[(2-fluorobenzoyl)amino]propan-2-yl]amino]-4,5,6,7-tetrahydro-1-benzothiophene-3-carboxamide] | cytoplasm | predominantly localized in the cytoplasm | nuclear accumulation; also recorded: nucleus | cytoplasm | cytoplasm | ∼1h | reversible | nuclear accumulation; also recorded: nucleus | nuclear accumulation; also recorded: nucleus | nuclear accumulation; also recorded: nucleus | inhibited; also recorded: accumulated in the nucleus | cell death | significantly reduced viability; also recorded: significantly affect the viability | 38 | cell death | significantly reduced viability | cell death | significantly reduced viability | cell death | significantly reduced viability | Cellular localization of green fluorescent RevNES-biosensor (RevNES-biosensor [1]; 25µM, T = 1h): nucleus/cytoplasm; Cellular localization of green fluorescent RevNES-biosensor (RevNES-biosensor [1]; 75µM, T = 1h): nucleus; Cellular localization of green fluorescent RevNES-biosensor (RevNES-biosensor [1]; 150µM, T = 1h): nucleus; cell death induced by treatment (K562 (Bcr-Abl^+)): cell death; cell death induced by treatment (SUP-B15): cell death; drug-induced apoptosis (cleaved Caspase 3 and PARP cleavage) (HeLa cells [4]): drug-induced apoptosis was shown; other signs of in vivo toxicity [5]: no significant weight loss (see Figure 5) or other signs of in vivo toxicity were observed; weight loss compared to the DMSO control [5]: no significant weight loss; RT-activity in the viral supernatant compared to the control [6]: significantly reduced the RT-activity |
| O=C(NC1CS(=O)(=O)CC1Cl)c1cccc(C(F)(F)F)c1 (stereo not shown) [Compound C5, N-(4-chloro-1,1-dioxothiolan-3-yl)-3-(trifluoromethyl)benzamide] | cytoplasm | nuclear fluorescence; also recorded: nucleus | nuclear accumulation; also recorded: nucleus | cytoplasm | cytoplasm | 5 to 6 h | irreversible; also recorded: irreversible* | nuclear accumulation; also recorded: nucleus | nuclear accumulation; also recorded: nucleus | nuclear accumulation; also recorded: nucleus | inhibited; also recorded: accumulated in the nucleus | cell death | significantly reduced viability; also recorded: significantly affect the viability | 17 | cell death | significantly reduced viability | cell death | significantly reduced viability | cell death | significantly reduced viability | Cellular localization of green fluorescent RevNES-biosensor (RevNES-biosensor [1]; 25µM, T = 3h): nucleus/cytoplasm; Cellular localization of green fluorescent RevNES-biosensor (RevNES-biosensor [1]; 75µM, T = 3h): nucleus; Cellular localization of green fluorescent RevNES-biosensor (RevNES-biosensor [1]; 150µM, T = 3h): nucleus; cell death induced by treatment (K562 (Bcr-Abl^+)): cell death; cell death induced by treatment (SUP-B15): cell death; drug-induced apoptosis (cleaved Caspase 3 and PARP cleavage) (HeLa cells [4]): drug-induced apoptosis was shown; other signs of in vivo toxicity [5]: no significant weight loss (see Figure 5) or other signs of in vivo toxicity were observed; weight loss compared to the DMSO control [5]: no significant weight loss; RT-activity in the viral supernatant compared to the control [6]: significantly reduced the RT-activity |
